In article PMC6988089 (Journal of the American Chemical Society, 2019):

Experiments:
Format in all cases: biochemical
[1] = tested on: Suv39H2 mutant / hole-modified CBX1; details: full-length H3 and purified mononucleosomes; Western blot
G9a Y1154G mutant = assay: Substrate peptide benzylation by G9a-Y1154G
Y372G mutant of Suv39H2 = assay: Benzylation of substrate peptide and full-length H3 by Suv39H2-Y372G
G9a Y1154A mutant = assay: Substrate peptide alkylation by G9a-Y1154A with SAM analogues; details: TAMRA-labeled H3K9 peptide; MALDI-MS

SMILES: Nc1ncnc2c1ncn2[C@@H]1O[C@H](C[S+](CC[C@H](N)C(=O)O)Cc2ccccc2)[C@@H](O)[C@H]1O (some centres unmarked) [benzyl-SAM]
- H3 signal after enrichment with hole-modified CBX1 [1]: signal for H3 only in the presence of benzyl-SAM
- substrate benzylation by G9a-Y1154G (G9a Y1154G mutant; TAMRA-labeled H3K9 peptide, MALDI-MS): complete substrate benzylation
- dibenzylation of substrate by G9a mutant (G9a Y1154G mutant; under our assay conditions, Figure S2): did not observe any dibenzylation
- utilization of benzyl-SAM by Suv39H2-Y372G (Y372G mutant of Suv39H2): efficiently utilized benzyl-SAM
- substrate modification by G9a-Y1154A (G9a Y1154A mutant): not efficient at incorporating benzyl modification
